According to patent US20110158919A1, “AROMA COMPOSITION COMPRISING O-COUMARIC ACID TO REDUCE OR SUPPRESS UNDESIRABLE TASTE IMPRESSIONS OF SWEETENERS” (SYMRISE AG, priority 2009, published 2011):
Structures can show the parent of a compound that is named as a salt.

Legend:
[1] = Stability test for OCA in a carbonated soft drink; assay type: physicochemical; details: 5000 Lux at 37° C. for 9 days
Description: Test 2: Stability Test for OCA in a Carbonated Soft Drink A carbonated soft drink was prepared consisting of water, 10 ppm trans-o-coumaric acid, 350 ppm Rebaudioside A, 250 ppm sodium benzoate, 150 ppm potassium sorbate, 0.1 wt.-% of lemon/lime extract flavour and 0.15 wt.-% sodium citrate/citric acid. The latter was added to obtain a pH of 3.0±0.2. Said mixture was carbonated with 2.7 volumes of carbon dioxide. This PET-bottled drink was stressed with 5000 Lux at 37° C. for 9 days, thereby simulating a storage time (shelf life) of about 9 months at 20° C. At the end of the test the soft drink still contained 8 ppm of OCA, corresponding to an OCA-stability of 80% after a storage time of about 9 months.

[2] = Solubility of homoeriodictyol salts; assay type: physicochemical; details: in words

OCA content of the soft drink at the end of the test ([1]; 10 ppm at start, PET-bottled carbonated soft drink, pH 3.0±0.2) [ppm] | OCA-stability ([1]; simulating a storage time of about 9 months at 20° C.) [%] | solubility compared with pure homoeriodictyol sodium salt [2] | SMILES
8 | 80 | – | O=C(O)/C=C/c1ccccc1O [OCA, (E)-3-(2-hydroxyphenyl)-2-propenoic acid]
– | – | better solubility | COc1cc([C@@H]2CC(=O)c3c(O)cc(O)cc3O2)ccc1O [homoeriodictyol potassium salt]
